Values joined by “and” are separate entries in the source; they are usually repeats but may differ in a detail not shown here. Identical values can stand only once. “Also recorded” adds a separate entry of the source. Like-named read-outs stand apart in the source and are kept apart here. Marks after values point to notes of the source that are not given here.
How the values were obtained:
[1] = tested on: formalin-induced rat paw oedema; assay: Formalin-induced paw oedema test (acute inflammation model); format: in vivo; details: for % inhibition of paw oedema compared with reference drugs (in words): comparison with celecoxib or diclofenac sodium; for inhibition in vivo at 5 mg/kg: Rattus norvegicus; for % Relative potency (4h) celecoxib, Mean ± SD / % Relative potency (4h) celecoxib: relative to % inhibition of celecoxib at 4 h; for % Relative potency (4h) diclofenac, Mean ± SD / % Relative potency (4h) diclofenac: relative to % inhibition of diclofenac at 4 h
Protocol: Animals Adult female albino rats weighing 150-250 g were used (Experimental Animal Centre in Alexandria University). All animals accessed to food and water ad libitum and were housed in 12 h dark/light cycle in a controlled condition at 23-250C. They were allowed to acclimatize for 1 week prior to experimentation. Procedures involving animals and their care were conducted in conformity with the Guide for the Care and Use of Laboratory Animals published by US National Institute of Health4 (NIH publication No. 83-23, revised) and following the ethical guidelines of Alexandria University on laboratory animals. In all tests, adequate considerations were adopted to reduce pain or discomfort of animals (Approved by AlexU-IACUC) 3. […]
Formalin-induced paw edema test (acute inflammation model):
A solution of freshly prepared formalin 5% was used as a phlogistic agent. A mark was made on the lateral malleolus of the rats’ paws delineating the injection sites. The initial volume of paw was measured by means of digital calibrated Vernier caliper .
After 45 minutes, 40 μl formalin were injected subcutaneously into the sub plantar tissue of the right hind paw of all groups under light ether anesthesia . An equal volume of saline was injected into the left hind paw and served as internal control for the degree of inflammation in the right hind paw. 5, 6 The volume of paw was measured in different treatment groups, 4 h following the formalin injection and the amount of increase in paw volume (edema volume) was calculated by subtracting the volumes before and 4 h after the injection of formalin. Edema was expressed as an increase in the volume of paw, and the percentage of edema inhibition (or percent protection against inflammation) for each rat and each group was calculated according to the following equation: […]
Where Vt is the mean volume of edema at specific time interval (4 h) and Vo is the mean volume of edema […]
Relative potency of the tested compounds was expressed as % inhibition of edema for the tested compounds

5-LOX = assay: In vitro 5-LOX inhibitory assay (Abnova 5-LOX inhibitor screening assay kit); format: biochemical
From the text: The newly synthesised compounds were screened for their ability to inhibit 5-LOX enzymes. […] (Page: S21, Supplementary file). […]
In vitro LOX inhibitory assay
Inhibitor Screening Assay Kit detects and measures the hydroperoxides produced in the lipoxygenation reaction using a purified LOX. The detection reaction is equally sensitive to hydroperoxides at various positions within the fatty acid and will work with fatty acids of any carbon length. It is thus a general detection method for 5-LOX and can be used to screen libraries of compounds for those which inhibit 5 -LOX enzymes.
1) Blank Wells- add 100 µL of assay buffer to at least two wells.
2) Positive Control Wells- Lipoxygenase (15-LO standard) add 90 µL 15-LO and 10 µL of assay buffer […]
3) 100% Initial Activity Wells- add 90 µL 15-LO and 10 µL of solvent (DMSO) (the same solvent to dissolve the inhibitor) to two wells. The 100% initial activity wells should result in approximately 10 […]
4) Inhibitor Wells- add 90 µL of sample and I10 µL of inhibitor to two wells.
5) Initiate the reaction by adding 10 µL of substrate (either arachidonic acid or linoleic acid) to all the wells. Place the 96-well plate on a shaker for at least five minutes.
6) Add 100 µL of chromogen to each well to stop enzyme catalysis and develop the reaction. Cover with a plate cover and place the 96-well plate on a shaker for at least five minutes.
7) Remove the cover and read the absorbance at 490-500 nm using a plate reader.
Inhibitors were dissolved in DMSO. The inhibitors were added to the assay in a final volume of 10 µL before initiating with substrate. Three concentrations were prepared (25, 50 and 100 µM) to determine the concentration produced 50% enzyme inhibition.
2) The absorbance of blank wells was subtracted from absorbance of the 100% Initial activity and the […]

gastric mucosa = assay: In vivo gastric ulcerogenic activity (gross examination of gastric mucosa); details: fasted rats, 60 mg/kg orally, six hours after treatment
COX-1 = biological target: T1, COX-1 (Ovis aries, UniProt P05979); assay: In vitro COX-1 inhibitory assay (Cayman colorimetric COX (ovine) inhibitor screening assay kit); format: biochemical; details: mean of three replicates ± SD
T1 construct: purchased Cayman chemicals 560131
T1 sequence (P05979 25-600): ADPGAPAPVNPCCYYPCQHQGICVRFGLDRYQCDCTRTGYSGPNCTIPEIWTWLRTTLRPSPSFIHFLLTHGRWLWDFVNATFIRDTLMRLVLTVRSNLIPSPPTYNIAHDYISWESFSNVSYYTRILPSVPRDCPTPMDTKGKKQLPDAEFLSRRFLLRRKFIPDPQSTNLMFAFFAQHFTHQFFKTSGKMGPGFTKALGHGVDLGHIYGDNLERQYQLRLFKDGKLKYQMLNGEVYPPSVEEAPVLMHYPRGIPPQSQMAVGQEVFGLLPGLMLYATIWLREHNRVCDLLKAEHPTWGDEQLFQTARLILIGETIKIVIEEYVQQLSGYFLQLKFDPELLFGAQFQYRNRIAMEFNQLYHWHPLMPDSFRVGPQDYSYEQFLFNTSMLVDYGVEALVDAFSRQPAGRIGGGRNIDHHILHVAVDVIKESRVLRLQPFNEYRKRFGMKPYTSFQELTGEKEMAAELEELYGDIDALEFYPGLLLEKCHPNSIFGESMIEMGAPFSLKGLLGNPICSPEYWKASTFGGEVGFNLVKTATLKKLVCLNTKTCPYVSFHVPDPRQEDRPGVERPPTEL
Protocol: (Page: S20, Supplementary file).
Anti-inflammatory activity
In vitro COX-1 and COX-2 inhibitory assay […]
supplied by Cayman chemicals, Ann Arbor, MI, USA according to reported method 1. The colorimetric COX inhibitor screening assay utilizes the peroxidase component of cyclooxygenase. The peroxidase activity was assayed calorimetrically by monitoring the appearance of oxidized N,N,N',N'-tetramethyl-1,4-phenylenediamine (TMPD) at 590nm. The appearance of reagent was carried out following the instructions […]
The half- maximal inhibitor concentrations (IC50µM) were determined and the selectivity index (SI) values were calculated as IC50 (COX-1)/IC50 (COX-2).
1) Background wells- 160 µL of assay buffer and 10 µL of heme were added to background wells.
2) The 100% Initial activity wells- 150 µL of assay buffer, 10 µL of heme and 10 µL of enzyme (COX-1 or COX-2) were added.
3) Inhibitor well- 150 µL of assay buffer, 10 µL of heme and 10 µL of enzyme were added.
4) 10 µL of inhibitor (3 concentrations) in DMSO was added to the inhibitor wells to yield a final […]
5) 10 µL of solvent (DMSO) was added to the 100% Initial activity wells and background wells.
7) 20 µL of colorimetric substrate solution (TMPD) was added to all wells.
8) 20 µL of arachidonic acid was added to all wells to yield a final concentration of 100 µM.
10) The absorbance was measured at 590 nm using a plate reader.
The calculations were carried out in the following manner:
1) The average absorbance of all samples was determined.
2) The absorbance of background wells was subtracted from absorbance of the 100% Initial activity […]
3) Percent inhibition = (100% Initial activity – Inhibitor wells/ 100% Initial activity)∗ 100 […]
Place the 96-well plate on a shaker for at least five minutes. […]

[2] = po, 4 h, individual rats 1-3, 5 mg/kg orally, read-out: % Inhibition of oedema volume
[3] = individual rats 1-3, 5 mg/kg orally, 5 mg/kg

IC50 (5-LOX) [µM]	IC50 (COX-1) [µM]	Structure (SMILES)	% inhibition of paw oedema compared with reference drugs (in words) ([1]; 4 h, 5 mg/kg orally)	Volume of oedema (ml) 4h ([1]; 4 h after formalin, individual rats 1-3, 5 mg/kg orally, 5 mg/kg) [mL]	inhibition in vivo at 5 mg/kg [1, 2] [%]	% Relative potency (4h) celecoxib, Mean ± SD ([1]; group mean ± SD) [%]	% Relative potency (4h) celecoxib ([1]; individual rats 1-3)	% Relative potency (4h) diclofenac, Mean ± SD ([1]; group mean ± SD) [%]	% Relative potency (4h) diclofenac ([1]; individual rats 1-3)	Volume of oedema (ml) 0 [1, 3] [mL]	Gross appearance of gastric mucosa (ulcerogenic potential) (gastric mucosa; 60 mg/kg)	Abs diff. ([1]; 4 h minus 0, individual rats 1-3, 5 mg/kg orally, 5 mg/kg)	inhibition in vivo at 5 mg/kg ([1]; po, 4 h, group mean ± SD, 5 mg/kg orally, read-out: % Inhibition of oedema volume, Mean ± SD) [%]	% Inhibition of oedema volume, Mean ± SD ([1]; 4 h, group mean ± SD, 5 mg/kg orally)	Abs diff., Mean ± SD ([1]; 4 h minus 0, group mean ± SD, 5 mg/kg orally)	inhibition in vivo at 5 mg/kg ([1]; po, 4 h, read-out: % Inhibition of oedema volume, 4 h, individual rats 1-3, 5 mg/kg orally) [%]	inhibition in vivo at 5 mg/kg ([1]; po, 4 h, read-out: % Inhibition of oedema volume, Mean ± SD, 4 h, group mean ± SD, 5 mg/kg orally) [%]	Volume of oedema (ml) 4h, Mean ± SD ([1]; po, 5 mg/kg, 4 h)	Gross appearance of gastric mucosa (ulcerogenic potential) (gastric mucosa)
1.96 ± 0.036	11.2 ± 0.15	Cc1ccc(C(C)C)c(O)c1C=NNC(=O)c1cc(-c2ccccc2)n(-c2ccc(S(N)(=O)=O)cc2)n1 [Compound 8a, 4-(3-(2–(2-Hydroxy-3-isopropyl-6-methylbenzylidene)hydrazine-1-carbonyl)-5-phenyl-1H-pyrazol-1-yl)benzenesulfonamide]	slightly less % inhibition than that of Diclofenac sodium	6.35	40.1	106.8 ± 12.02	114.10% and 92.90% and 113.30%	74.10 ± 9.64	84.80% and 66.10% and 71.40%	5.02	variable degrees of hyperaemia; also recorded: Hyperemia without gross ulceration								
2.56 ± 0.025	11.24 ± 0.075	Cc1ccc(C(C)C)c(O)c1C=NNC(=O)c1cc(-c2ccc(Br)cc2)n(-c2ccccc2)n1 [Compound 8e, 5-(4-Bromophenyl)-N'-(2-hydroxy-3-isopropyl-6-methylbenzylidene)-1-phenyl-1H-pyrazole-3-carbohydrazide]			59.5	149.1 ± 20.95	169.20% and 127.40% and 150.70%	103.8 ± 19.09	125.70% and 90.70% and 95.0%										
2.91 ± 0.064	11.2 ± 0.57	COc1ccc(-c2cc(C(=O)NN=Cc3c(C)ccc(C(C)C)c3O)nn2-c2ccccc2)cc1 [Compound 8f, 5-(4-Methoxyphenyl)-N'-(2-hydroxy-3-isopropyl-6-methylbenzylidene)-1-phenyl-1H-pyrazole-3-carbohydrazide]	slightly less % inhibition than that of Diclofenac sodium		50.5	127.7 ± 14.41	143.60% and 115.50% and 124.0%	89.03 ± 15.43	106.70% and 82.20% and 78.20%	5.15		1.20	46.3 ± 3.67						
		O=C(O)Cc1ccccc1Nc1c(Cl)cccc1Cl [Diclofenac sodium, reference compound]												52.53^b ± 4.59%	1.03^ab ± 0.12	47.3	52.4	5.30^ab ± 0.09 ml	no ulceration

From PMC9704104, “Towards safer anti-inflammatory therapy: synthesis of new thymol–pyrazole hybrids as dual COX-2/5-LOX inhibitors” (Journal of Enzyme Inhibition and Medicinal Chemistry, 2022)
